We go through six molecules from article PMC7071059, “Targeting Receptor Tyrosine Kinase VEGFR-2 in Hepatocellular Cancer: Rational Design, Synthesis and Biological Evaluation of 1,2-Disubstituted Benzimidazoles” (Molecules, 2020).

Usually inhibition stands for the percentage by which the read-out fell short of the control. One may read the IC50 as the midpoint of a concentration-inhibition curve.

The subject of one test is OVCAR-8. Briefly: NCI 60 one dose (10 μM) anticancer assay. It counts as cell-based. As to conditions: Homo sapiens, 10 µM one dose, Ovarian Cancer, read-out: Growth Inhibition % OVCAR-8. As to the method: (§1) Some of the synthesized compounds were selected by the NCI, Bethesda, MD, USA for evaluation of their anticancer activity. An in vitro one dose (10 μM) anticancer assay was conducted on a full NCI 60-cell line panel derived from 9 different cancer types. Table 2 presents the percent of growth inhibition of some cell lines. […] K-562 and MOLT-4 from leukemia, NCI-H522 from non-small cell lung cancer, HCT-116 from colon cancer, SK-MEL-5 and UACC-62 from melanoma, UO-31 from renal cancer, PC-3 from prostate cancer and HS 578T and T-47D from breast cancer are the most sensitive cell lines to the tested compounds. No growth inhibition was observed from the selected compounds against COLO205, HCC-2998, MALME-3M, SK-MEL-28, DU-145 and BT-549 cell lines. […] Against UO-31 from renal cancer and PC-3 from prostate cancer, it inhibited the growth of 44% and 58% of the cancer cells, respectively.

The test system of a further test is CCRF-CEM. Briefly: NCI 60 one dose (10 μM) anticancer assay. It counts as cell-based. As to conditions: Homo sapiens, 10 µM one dose, Leukemia, read-out: Growth Inhibition % CCRF-CEM. As to the method: as §1
The next test relates to TK-10. Briefly: NCI 60 one dose (10 μM) anticancer assay. Type of test: cell-based. The settings on record: Homo sapiens, 10 µM one dose, Renal Cancer, read-out: Growth Inhibition % TK-10. On the procedure:
as §1

The subject of a further test is UACC-62. Briefly: NCI 60 one dose (10 μM) anticancer assay. The settings on record: Homo sapiens, 10 µM one dose, Melanoma, read-out: Growth Inhibition % UACC-62. Type of test: cell-based. As to the method: as §1
Another test relates to M14. As to the kind of experiment: NCI 60 one dose (10 μM) anticancer assay. Type of test: cell-based. As to conditions: Homo sapiens, 10 µM one dose, Melanoma, read-out: Growth Inhibition % M14. As to the method: as §1
Another test concerns SNB-19. Briefly: NCI 60 one dose (10 μM) anticancer assay. Type of test: cell-based. The settings on record: Homo sapiens, 10 µM one dose, CNS Cancer, read-out: Growth Inhibition % SNB-19. As to the method:
as §1

The next test deals with PC-3. Briefly: NCI 60 one dose (10 μM) anticancer assay. Type of test: cell-based. As to conditions: Homo sapiens, 10 µM one dose, Prostate Cancer, read-out: Growth Inhibition % PC-3. On the procedure:
as §1

The test system of a further test is U251. As to the kind of experiment: NCI 60 one dose (10 μM) anticancer assay. It counts as cell-based. The settings on record: Homo sapiens, U-251; 10 µM one dose; CNS Cancer; read-out: Growth Inhibition % U251. On the procedure: as §1
Another test relates to T-47D. As to the kind of experiment: NCI 60 one dose (10 μM) anticancer assay. The settings on record: Homo sapiens, T47D; 10 µM one dose; Breast Cancer; read-out: Growth Inhibition % T-47D. Type of test: cell-based. As to the method:
as §1

The next test deals with MOLT-4. As to the kind of experiment: NCI 60 one dose (10 μM) anticancer assay. Type of test: cell-based. As to conditions: Homo sapiens, 10 µM one dose, Leukemia, read-out: Growth Inhibition % MOLT-4. As to the method:
as §1

Another test has as its system HT29. Briefly: NCI 60 one dose (10 μM) anticancer assay. The settings on record: Homo sapiens, HT-29; 10 µM one dose; Colon Cancer; read-out: Growth Inhibition % HT29. Type of test: cell-based. As to the method: as §1
The test system of another test is SNB-75. As to the kind of experiment: NCI 60 one dose (10 μM) anticancer assay. It counts as cell-based. The settings on record: Homo sapiens, 10 µM one dose, CNS Cancer, read-out: Growth Inhibition % SNB-75. On the procedure:
as §1

In the next test the test system is HL-60(TB). As to the kind of experiment: NCI 60 one dose (10 μM) anticancer assay. It counts as cell-based. The settings on record: Homo sapiens, 10 µM one dose, Leukemia, read-out: Growth Inhibition % HL-60(TB). As to the method:
as §1

Another test concerns HOP-92. As to the kind of experiment: NCI 60 one dose (10 μM) anticancer assay. Type of test: cell-based. As to conditions: Homo sapiens, 10 µM one dose, Non-small cell lung Cancer, read-out: Growth Inhibition % HOP-92. As to the method: as §1
The next test deals with RXF 393. As to the kind of experiment: NCI 60 one dose (10 μM) anticancer assay. The settings on record: Homo sapiens, 10 µM one dose, Renal Cancer, read-out: Growth Inhibition % RXF 393. Type of test: cell-based. As to the method:
as §1

The next test deals with MDA-MB-435. Briefly: NCI 60 one dose (10 μM) anticancer assay. Type of test: cell-based. The settings on record: Homo sapiens, 10 µM one dose, Melanoma, read-out: Growth Inhibition % MDA-MB-435. On the procedure: as §1
For the next test, the system named is K-562. Briefly: NCI 60 one dose (10 μM) anticancer assay. Type of test: cell-based. As to conditions: Homo sapiens, K562; 10 µM one dose; Leukemia; read-out: Growth Inhibition % K-562. On the procedure: as §1
A further test relates to HSF cell line. Briefly: In vitro growth inhibitory activity on normal human skin fibroblast, SRB assay. It counts as cell-based. The settings on record: Homo sapiens, HSF; SRB assay, 48 h; normal cell line; mean of three independent experiments. On the procedure: The anticancer activity of the synthesized compounds was measured in vitro using the Sulfo-Rhodamine-B (SRB) assay according to Skehan et al.. Briefly, HepG2 or HSF cells (obtained from Nawah Scientific) were inoculated in 96-well microtiter plates (10^4 cells/ well) for 24 h before treatment with the tested compounds to allow attachment of cells to the walls of the plates. Test compounds were dissolved in DMSO immediately before use and diluted to the appropriate volume just before addition to the cell culture. […] Three wells were prepared for each individual dose. Monolayer cells were incubated with the compounds for 48 h at 37 °C and in an atmosphere of 5% CO2. After 48 h, cells were fixed, washed and stained for 30 min with 0.4% (w/v) SRB dissolved in 1% acetic acid. Unbound dye was removed by four washes with 1% acetic acid and attached stain was recovered with Tris-EDTA buffer. Color intensity was measured in an ELISA reader. The relation between surviving fraction and drug concentration was plotted to get the survival curve.

The target of the next test is VEGFR-2 (Homo sapiens, UniProt P35968). As to the kind of experiment: Biochemical kinase assay (Kinase-Glo Plus luminescence). On the technique in general: Kinase-Glo reads ATP consumption through a luciferase reaction.
Sequence of VEGFR-2 (P35968 20-1356): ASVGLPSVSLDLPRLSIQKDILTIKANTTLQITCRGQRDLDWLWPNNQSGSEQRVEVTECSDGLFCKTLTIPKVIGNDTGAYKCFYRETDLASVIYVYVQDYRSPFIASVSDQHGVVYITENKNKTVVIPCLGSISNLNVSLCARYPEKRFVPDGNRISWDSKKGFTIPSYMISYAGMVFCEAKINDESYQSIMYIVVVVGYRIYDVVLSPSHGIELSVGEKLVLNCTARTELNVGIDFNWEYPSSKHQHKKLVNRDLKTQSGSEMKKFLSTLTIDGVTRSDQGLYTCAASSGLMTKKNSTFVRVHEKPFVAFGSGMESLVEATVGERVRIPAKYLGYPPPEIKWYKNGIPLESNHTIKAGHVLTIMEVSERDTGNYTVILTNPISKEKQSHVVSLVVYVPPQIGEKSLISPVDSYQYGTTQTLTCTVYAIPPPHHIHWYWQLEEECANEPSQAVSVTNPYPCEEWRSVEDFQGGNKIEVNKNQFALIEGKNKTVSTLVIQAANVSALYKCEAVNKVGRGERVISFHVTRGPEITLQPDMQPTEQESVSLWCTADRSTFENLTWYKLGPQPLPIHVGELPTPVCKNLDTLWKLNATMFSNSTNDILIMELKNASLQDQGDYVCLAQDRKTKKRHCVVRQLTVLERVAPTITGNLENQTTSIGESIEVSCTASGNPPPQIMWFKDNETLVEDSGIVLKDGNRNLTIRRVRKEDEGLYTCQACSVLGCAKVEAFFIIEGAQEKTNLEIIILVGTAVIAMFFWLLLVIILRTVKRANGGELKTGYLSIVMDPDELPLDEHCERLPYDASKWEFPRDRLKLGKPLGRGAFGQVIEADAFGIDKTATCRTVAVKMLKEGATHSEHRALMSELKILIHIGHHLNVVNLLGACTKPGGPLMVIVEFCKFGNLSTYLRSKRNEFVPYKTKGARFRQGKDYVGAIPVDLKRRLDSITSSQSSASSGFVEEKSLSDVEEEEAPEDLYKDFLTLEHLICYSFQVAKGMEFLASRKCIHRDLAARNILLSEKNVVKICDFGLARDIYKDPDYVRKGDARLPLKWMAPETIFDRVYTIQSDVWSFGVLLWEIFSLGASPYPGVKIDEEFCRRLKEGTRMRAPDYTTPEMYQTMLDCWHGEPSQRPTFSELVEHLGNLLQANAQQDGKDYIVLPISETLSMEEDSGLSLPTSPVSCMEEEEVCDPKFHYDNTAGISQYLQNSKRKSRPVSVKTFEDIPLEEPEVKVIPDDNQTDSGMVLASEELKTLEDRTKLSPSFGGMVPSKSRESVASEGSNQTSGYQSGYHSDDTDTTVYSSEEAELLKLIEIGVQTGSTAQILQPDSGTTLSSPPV
The subject of the next test is PRMI-8226. Briefly: NCI 60 one dose (10 μM) anticancer assay. It counts as cell-based. As to conditions: 10 µM one dose; Leukemia; read-out: Growth Inhibition % PRMI-8226. As to the method: as §1

Description for VEGFR-2: This assay was carried out using the VEGFR-2 kinase enzyme system or FGFR-1 kinase enzyme system and Kinase-Glo Plus luminescence kinase (Promega) kits according to the manufacturers´ protocols. This assay evaluated the activity of kinase by measuring the amount of ATP remaining in solution after a kinase reaction. The luminescent signal from the assay was related to the quantity of ATP available, which was inversely proportional to the amount of kinase activity. […] Subsequently, serial dilutions were carried out, and 5 µL of the dilution was added to a 50 µL reaction. The enzymatic reactions were performed at 30 °C for 45 minutes. The 50 µL reaction mixture contained 40 mM Tris, pH 7.4, 10 mM MgCl2, 0.1 mg/mL BSA, 1 mM DTT, 0.2 mg/ml Poly (Glu, Tyr) substrate, 10 μM ATP and protein. After the enzymatic reaction, 50 µL of Kinase-Glo Plus Luminescence kinase assay solution was added to each reaction, and the plates were incubated for 15 minutes at room temperature. The luminescence signal was measured using a Tecan–spark multimode microplate reader. The difference between luminescence intensities in the absence of Kinase (Lut) and in the presence of Kinase (Luc) was defined as 100% activity (Lut − Luc). Using a luminescence signal (Lu) in the presence of the compound, % activity was calculated as: % activity = {(Lut − Lu)/(Lut − Luc)}×100%, where Lu = the luminescence intensity in the presence of the compound.

`CC(C)c1nc2ccccc2n1CC(=O)N/N=C/c1ccc(OCc2ccccc2)cc1` [Compound 17c, (E)-N′-(4-(Benzyloxy)benzylidene)-2-(2-isopropyl-1H-benzo[d]imidazol-1-yl)acetohydrazide]: the inhibition at 10 µM in the test with OVCAR-8 was less than 10%; in the test on CCRF-CEM, less than 10%; in the test with TK-10, less than 10%; with UACC-62, 26%; with M14 it was less than 10%; in the test with SNB-19 it was less than 10%. Further, the inhibition at 10 µM in the test with PC-3 is 17%; in the test on U251, less than 10%; in the test on T-47D, 24%; in the test on MOLT-4, 25%; in the test with HT29, less than 10%; in the test on SNB-75 it was less than 10%. Moreover, the inhibition at 10 µM in the test with HL-60(TB) was less than 10%; in the test with HOP-92 it was less than 10%; in the test with RXF 393, less than 10%; in the test on MDA-MB-435, less than 10%; with K-562 it was 28%.
As for `Cc1ccc(-c2nc3ccccc3n2CC(=O)N/N=C/c2cccc(OCc3ccccc3)c2)o1` [Compound 17b, (E)-N′-(3-(Benzyloxy)benzylidene)-2-(2-(5-methylfuran-2-yl)-1H-benzo[d]imidazol-1-yl)acetohydrazide], the IC50 with HSF cell line stood at 4.8 µM; at VEGFR-2, 140 ± 4 nM. For the same molecule, the inhibition at 10 µM is 26% in the test with OVCAR-8; 28% in the test on CCRF-CEM; 10% with TK-10; 29% in the test on UACC-62; 24% with M14; 21% with SNB-19. The inhibition at 10 µM turned out to be 46% in the test on PC-3; 36% in the test on U251; 49% in the test with T-47D; 58% in the test on MOLT-4; 29% with HT29; 39% with SNB-75. Moreover, the inhibition at 10 µM in the test on PRMI-8226 stood at 50%; with HL-60(TB), 50%; in the test on HOP-92, 32%; with RXF 393, 40%; in the test with MDA-MB-435, 21%; with K-562, 54%.
For the molecule `Cc1ccc(-c2nc3ccccc3n2CC(=O)N/N=C/c2ccc(OCc3ccccc3)cc2)o1` [Compound 17d, (E)-N′-(4-(Benzyloxy)benzylidene)-2-(2-(5-methylfuran-2-yl)-1H-benzo[d]imidazol-1-yl)acetohydrazide], the inhibition at 10 µM in the test on OVCAR-8 was 20%; in the test with CCRF-CEM it was less than 10%; in the test on TK-10, less than 10%; in the test with UACC-62, less than 10%; in the test with M14 it was less than 10%; in the test on SNB-19 it was less than 10%. The inhibition at 10 µM in the test on PC-3 was 29%; with U251 it was less than 10%; with T-47D, 31%; in the test with MOLT-4 it was 40%; in the test on HT29, less than 10%; in the test with SNB-75, 20%. Further, the inhibition at 10 µM with HL-60(TB) is 19%; in the test on RXF 393 it was less than 10%; in the test on MDA-MB-435, less than 10%; with K-562, 41%.
As to `C/C(=N\NC(=O)Cn1c(C(C)C)nc2ccccc21)c1ccccc1` [Compound 14a, (E)-2-(2-Isopropyl-1H-benzo[d]imidazol-1-yl)-N′-(1-phenylethylidene)acetohydrazide], the inhibition at 10 µM in the test on OVCAR-8 was less than 10%; in the test with CCRF-CEM, 16%; in the test on TK-10, less than 10%; with UACC-62, 13%; with M14 it was less than 10%; with SNB-19, less than 10%. In addition, the inhibition at 10 µM was less than 10% in the test with PC-3; less than 10% with U251; less than 10% in the test with T-47D; less than 10% with MOLT-4; less than 10% with HT29; 18% in the test with SNB-75. The inhibition at 10 µM in the test on PRMI-8226 is less than 10%; in the test with HL-60(TB), less than 10%; in the test with HOP-92, 18%; in the test on RXF 393, 33%; with MDA-MB-435, less than 10%; with K-562, less than 10%.
As for `COc1cc(/C=N/NC(=O)Cn2c(C(C)C)nc3ccccc32)ccc1OCc1ccccc1` [Compound 17e, (E)-N′-(4-(Benzyloxy)-3-methoxybenzylidene)-2-(2-isopropyl-1H-benzo[d]imidazol-1-yl)acetohydrazide], the inhibition at 10 µM is less than 10% in the test on OVCAR-8; less than 10% in the test on CCRF-CEM; less than 10% in the test on TK-10; 22% in the test with UACC-62; less than 10% in the test with M14; less than 10% in the test on SNB-19. The inhibition at 10 µM was 20% in the test on PC-3; less than 10% in the test on U251; 27% in the test with T-47D; 22% with MOLT-4; less than 10% in the test on HT29; less than 10% with SNB-75. For the same molecule, the inhibition at 10 µM in the test on HL-60(TB) was less than 10%; with HOP-92, less than 10%; in the test with RXF 393, less than 10%; in the test with MDA-MB-435 it was less than 10%; in the test with K-562, 25%.
In the case of `COc1cc(/C=N/NC(=O)Cn2c(-c3ccc(C)o3)nc3ccccc32)ccc1OCc1ccccc1` [Compound 17f, (E)-N′-(4-(Benzyloxy)-3-methoxybenzylidene)-2-(2-(5-methylfuran-2-yl)-1H-benzo[d]imidazol-1-yl)acetohydrazide], the inhibition at 10 µM was 19% in the test with OVCAR-8; 19% with CCRF-CEM; less than 10% in the test with TK-10; 22% in the test with UACC-62; less than 10% in the test with M14; 20% in the test with SNB-19. Further, the inhibition at 10 µM is 37% in the test on PC-3; less than 10% with U251; 31% in the test on T-47D; 50% in the test on MOLT-4; less than 10% in the test on HT29; 17% in the test with SNB-75. For the same molecule, the inhibition at 10 µM is less than 10% with HL-60(TB), less than 10% in the test on RXF 393, less than 10% with MDA-MB-435 and 34% in the test on K-562.
